From patent publication US20260176289A1, “SMALL MOLECULE INHIBITORS OF KRAS PROTEINS” (Merck Sharp & Dohme LLC, priority 2022, published 2026) come the findings set out here.

Read-outs that look alike come from different tables or passages of the source.

In one experiment the target is KRAS-G12D (Homo sapiens, UniProt P01116, G12D). The experiment can be described thus: SOS-catalyzed nucleotide exchange assay (Procedure A, TR-FRET), KRAS-G12D. It is filed as biochemical. The method in brief:
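Signal ratio (520/495 nm, excitation 340 nm) reports Bodipy-GDP retention on biotinylated RAS after SOS-catalyzed exchange with 3 mM GTP. SOS was 40 nM, except 160 nM for G12V. Room-temperature exchange lasted 60 min (90 min for G12V), following a 60 min compound preincubation.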
Background: In TR-FRET formats the signal depends on donor and acceptor labels being close together.

Another experiment has as its target KRAS-G12V (Homo sapiens, UniProt P01116, G12V). Description: SOS-catalyzed nucleotide exchange assay (Procedure A, TR-FRET), KRAS-G12V. The format is biochemical. The method in brief:
(§1)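 RAS (G12C carries C51S/C80L/C118S) loaded with Bodipy-GDP, complexed with Tb-streptavidin; cpd 60 min RT; + SOS/3 mM GTP. G12C 3/40 nM, WT 1/40, NRAS 1.25/40 nM RAS/SOS, 60 min; G12V 1.25/160 nM, 90 min. Normalized to DMSO and saturating inhibitor; 4PL fit.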

The next experiment deals with AsPC-1 cells. The experiment can be described thus: Cellular phospho-ERK assay, AsPC-1 cells (homozygous KRAS-G12D). The format is cell-based. The settings on record: Homo sapiens, read-out: AsPC1 pERK IC50. The method in brief:
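10k–15k cells/well, o/n attach; cpd 2 h, 37 °C, 10-pt 1:3 from 30 μM final; lyse with protease/phosphatase inhibitors 30 min RT; multiplex SureFire p-ERK + total ERK; IC50 via 4PL on ratio.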

A further experiment deals with KRAS-WT (Homo sapiens, UniProt P01116). Description: SOS-catalyzed nucleotide exchange assay (Procedure A, TR-FRET), KRAS-WT. It is filed as biochemical. The method in brief:
as §1

A further experiment concerns MKN-1 cells. Description: Cellular phospho-ERK assay, MKN-1 cells (amplified wild-type KRAS). It is filed as cell-based. The settings on record: Homo sapiens, read-out: MKN1 pERK IC50. As for the experimental part:
(§2) Procedure for Cellular Phospho-ERK Assay in KRAS Wild Type and Mutant (G12D, G12V) Cell Lines
(§3) MKN-1 cells (JCRB JCRB0252) containing amplified wild-type KRAS, were cultured in growth medium that contains RPMI 1640-GlutaMAX™-I (ThermoFisher Scientific 61870) containing 10% heat inactivated fetal bovine serum (ThermoFisher Scientific 10091148), 1 mM sodium pyruvate and 10 mM HEPES. PANC08.13 cells (ATCC® CRL-2551™), containing homozygous KRAS-G12D activating mutation, were cultured in growth medium made of RPMI1640-GlutaMAX™-I (ThermoFisher Scientific 61870) containing 15% heat inactivated fetal bovine serum (ThermoFisher Scientific 10091148)). AsPC-1 cells (ATCC® CRL-1682™), containing homozygous KRAS-G12D activating mutation, were cultured in T150 flask in growth medium (RPMI medium 1640-GlutaMAX™-I (ThermoFisher Scientific 61870) containing 10% fetal bovine serum (ThermoFisher Scientific 10091148)). SW620 cells (ATCC® […]), containing homozygous KRAS-G12V activating mutation, were cultured in growth medium that contains RPMI 1640-GlutaMAX™-I (ThermoFisher Scientific 61870) containing 10% heat inactivated fetal bovine serum (ThermoFisher Scientific 10091148).
(§4) Cells for the assay were harvested in growth medium after TrypLE (ThermoFisher scientific 12604021) digestion and were seeded in a 384-well collagen coated cell culture plate (Corning 356702) at a density of 10,000-15,000 cells/20 μL/well, and incubated at 37° C., 5% CO2 overnight. The compound (with 10 mM stock concentration) dose-response titrations were prepared [30 μM final ERK detection assay concentration and 1:3 dilutions, 10-point dose response] and appropriate amounts (270 nL) of test compounds were dispensed in a 384-well intermediate plate using an Echo 550 liquid handler. 30 μL/well of RPMI medium 1640-GlutaMAX™—I was added to the intermediate plate and the contents of the intermediate plate (10 μL/well) were then transferred to the 384-well collagen coated cell culture plate, which was incubated at 37° C., 5% CO2 for 2 hours. After removal of medium from the collagen coated cell culture plate, cells were lysed in lysis buffer from Alpha SureFire® Ultra™ Multiplex p-ERK and total ERK assay kit (PerkinElmer MPSU-PTERK) containing Halt™ Protease and Phosphatase inhibitor cocktail (ThermoFisher Scientific 78446) at room temperature with constant shaking at 300 rpm for 30 minutes. The cell lysates were then transferred to an OptiPlate-384 plate (PerkinElmer 6005620), and the phosphorylation of ERK (p-ERK) and total ERK levels were detected by Alpha SureFire® Ultra™ Multiplex p-EEK kit and total ERK assay kit (PerkinElmer MPSU-PTERK) following the manufacturer's protocol. Assay plates were read on a En Vision Multimode Plate Reader (PerkinElmer), and the ratio of p-ERK vs. total ERK in each well was used as the final readout. Dose response curves were analyzed using a 4-parameter logistic model to calculate IC50 values using Spotfire software.

The test system of a further experiment is SW620 cells. The experiment can be described thus: Cellular phospho-ERK assay, SW620 cells (homozygous KRAS-G12V). The format is cell-based. The settings on record: Homo sapiens, read-out: SW620 pERK IC50. As for the experimental part: as §2, §3, §4
Where [1] appears, read: nucleotide exchange, read-out: KRAS G12D GNE IC50.
The mark [2] stands for this setting: nucleotide exchange, read-out: KRAS G12V GNE IC50.
The mark [3] stands for this setting: ASPC1, 2 h, 2 hours compound incubation.
[4] abbreviates: nucleotide exchange, read-out: KRAS WT GNE IC50.
Setting [5] is: SW-620, 2 hours compound incubation.
Where [6] appears, read: amplified wild-type KRAS, 2 hours.

KRAS-G12V, sequence (P01116 with tags, fused parts or gaps isoform P01116-2 G12V): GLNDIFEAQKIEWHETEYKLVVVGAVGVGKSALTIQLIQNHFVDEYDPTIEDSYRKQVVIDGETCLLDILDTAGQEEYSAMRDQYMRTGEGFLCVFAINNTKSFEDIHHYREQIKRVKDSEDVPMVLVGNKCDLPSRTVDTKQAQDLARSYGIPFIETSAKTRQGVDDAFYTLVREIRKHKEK
KRAS-G12D, sequence (P01116 with tags, fused parts or gaps isoform P01116-2 G12D): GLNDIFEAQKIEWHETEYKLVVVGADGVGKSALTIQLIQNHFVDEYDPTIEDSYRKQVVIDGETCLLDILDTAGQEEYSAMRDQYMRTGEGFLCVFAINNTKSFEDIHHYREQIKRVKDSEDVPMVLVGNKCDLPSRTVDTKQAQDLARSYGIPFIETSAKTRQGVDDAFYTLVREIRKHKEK
KRAS-WT, sequence (P01116 with tags, fused parts or gaps isoform P01116-2): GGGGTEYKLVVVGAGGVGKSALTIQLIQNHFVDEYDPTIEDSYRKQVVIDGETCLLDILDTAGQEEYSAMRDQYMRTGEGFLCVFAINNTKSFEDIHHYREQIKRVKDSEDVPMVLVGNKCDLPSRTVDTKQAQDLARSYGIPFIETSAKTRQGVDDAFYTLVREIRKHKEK

Broadly, the IC50 is the concentration needed to halve the response being measured. Regarding `C[C@@]1(O)COCCN(c2nc(OC[C@@]34CCCN3C[C@H](F)C4)nc3sc4c(-c5c6cn[nH]c6cc6ccc(F)c(Cl)c56)nccc4c23)C1` [Ex-162], the IC50 worked out at 19.8 nM at KRAS-G12D (setting [1]); 47.5 nM on KRAS-G12V (setting [2]); 133 nM in the experiment on AsPC-1 cells (setting [3]); 43.6 nM at KRAS-WT (setting [4]); 106 nM in the experiment on MKN-1 cells (2 hours compound incubation); 48 nM in the experiment with SW620 cells (setting [5]).

On to `C[C@@]1(O)COCCN(c2nc(OC[C@@]34CCCN3C[C@H](F)C4)nc3sc4c(-c5c(-c6ccoc6)c(Cl)cc6[nH]ncc56)nccc4c23)C1` [Ex-71, (6S)-4-(8-(6-chloro-5-(furan-3-yl)-1H-indazol-4-yl)-2-(((2R,7aS)-2-fluorotetrahydro-1H-pyrrolizin-7a(5H)-yl)methoxy)pyrido[4′,3′:4,5]thi-eno[2,3-d]pyrimidin-4-yl)-6-methyl-1,4-oxazepan-6-ol], for which the IC50 on KRAS-G12D (setting [1]) is 4 nM; at KRAS-G12V (setting [2]), 11.5 nM; in the experiment on AsPC-1 cells (ASPC1, 2 h, KRAS-G12D, 2 hours), 66.4 nM; at KRAS-WT (setting [4]), 17.6 nM; in the experiment on MKN-1 cells (setting [6]) it was 50.2 nM; in the experiment with SW620 cells (SW-620, KRAS-G12V, 2 hours), 150 nM.

`Cc1cc2[nH]ncc2c(-c2nccc3c2sc2nc(OC[C@@]45CCCN4C[C@H](F)C5)nc(N4CCOC[C@@](C)(O)C4)c23)c1-c1ccc(F)o1` [Ex-72, (6S)-4-(8-(5-(5-fluorofuran-2-yl)-6-methyl-1H-indazol-4-yl)-2-(((2R,7aS)-2-fluorotetrahydro-1H-pyrrolizin-7a(5H)-yl)methoxy)pyrido[4′,3′:4,5]thi-eno[2,3-d]pyrimidin-4-yl)-6-methyl-1,4-oxazepan-6-ol]: the IC50 on KRAS-G12D (setting [1]) was determined as 15 nM; at KRAS-G12V (setting [2]) it was 35.3 nM; with AsPC-1 cells (ASPC1, 2 h, KRAS-G12D, 2 hours) it was 139 nM; on KRAS-WT (setting [4]), 53.9 nM; with MKN-1 cells (setting [6]), 82.4 nM; in the experiment with SW620 cells (SW-620, KRAS-G12V, 2 hours) it was 53.8 nM.

For the compound `C[C@@]1(O)COCCN(c2nc(OC[C@@]34CCCN3C[C@H](F)C4)nc3[se]c4c(-c5c(C6CC6)c(Cl)cc6[nH]ncc56)nccc4c23)C1` [Ex-289, (6S)-4-(8-(6-chloro-5-cyclopropyl-1H-indazol-4-yl)-2-(((2R,7aS)-2-fluorotetrahydro-1H-pyrrolizin-7a(5H)-yl)methoxy)pyri-do[4′,3′:4,5]seleno-pheno[2,3-d]pyrimidin-4-yl)-6-methyl-1,4-oxazepan-6-ol], the IC50 at KRAS-G12D (KRAS G12D GNE IC50, nucleotide exchange) came to 6.97 nM; against KRAS-G12V (KRAS G12V GNE IC50, nucleotide exchange) it was 26.9 nM; with AsPC-1 cells (ASPC1, KRAS-G12D, 2 hours), 103 nM; on KRAS-WT (KRAS WT GNE IC50, nucleotide exchange), 22.3 nM; in the experiment with MKN-1 cells (setting [6]), 81.4 nM; in the experiment with SW620 cells (SW-620, KRAS-G12V, 2 hours) it was 64.6 nM.

`C[C@@]1(O)COCCN(c2nc(OC[C@@]34CCN3C[C@H](F)C4)nc3sc4c(-c5c(C6CC6)c(Cl)cc6[nH]ncc56)nccc4c23)C1` (single isomer, unassigned) [Ex-221]: the IC50 on KRAS-G12D (setting [1]) is 5.55 nM; at KRAS-G12V (setting [2]), 21.2 nM; in the experiment on AsPC-1 cells (setting [3]), 175 nM; on KRAS-WT (setting [4]), 22.8 nM; with MKN-1 cells (2 hours compound incubation), 80.7 nM; with SW620 cells (setting [5]), 79.4 nM.

For the compound `CC1(O)COCCN(c2nc(OCC3(CN4CC5C(F)C5C4)CC3(F)F)nc3sc4c(-c5c(C6CC6)c(Cl)cc6[nH]ncc56)nccc4c23)C1` [Ex-214, (6S)-4-(8-(6-chloro-5-cyclopropyl-1H-indazol-4-yl)-2-(((R)-2,2-difluoro-1-(((1R,5S,6R)-6-fluoro-3-azabicyclo [3.1.0]hexan-3-yl)-methyl)cycloprop-yl)methoxy)pyrido [4′,3′:4,5]thieno[2,3-d]pyrimidin-4-yl)-6-methyl-1,4-oxaze-pan-6-ol], the IC50 was determined as 62.8 nM on KRAS-G12D (setting [1]); 243 nM at KRAS-G12V (setting [2]); 136 nM in the experiment with AsPC-1 cells (setting [3]); 498 nM at KRAS-WT (setting [4]); 171 nM in the experiment on MKN-1 cells (2 hours compound incubation); 107 nM in the experiment on SW620 cells (setting [5]).

Turning to `CC(C)(C)c1c(Cl)cc2[nH]ncc2c1-c1nccc2c1sc1nc(OC[C@@]34CCCN3C[C@H](F)C4)nc(N3CCOC[C@@](C)(O)C3)c12` [Ex-156, (6S)-4-(8-(5-(tert-butyl)-6-chloro-1H-indazol-4-yl)-2-(((2R,7aS)-2-fluorotetrahydro-1H-pyrrolizin-7a(5H)-yl)methoxy)pyrido[4′,3′:4,5]thieno[2,3-d]pyrimidin-4-yl)-6-methyl-1,4-oxazepan-6-ol], the IC50 at KRAS-G12D (setting [1]) turned out to be 5.21 nM; at KRAS-G12V (setting [2]), 16.7 nM; in the experiment with AsPC-1 cells (setting [3]) it was 76.1 nM; on KRAS-WT (setting [4]) it was 18.9 nM; in the experiment with MKN-1 cells (2 hours compound incubation), 113 nM; in the experiment on SW620 cells (setting [5]) it was 45.2 nM.

Consider `CO[C@H]1CN2CCC[C@@]2(COc2nc(N3CCOC[C@@](C)(O)C3)c3c(n2)sc2c(-c4c(C5CC5)c(Cl)cc5[nH]ncc45)nccc23)C1` [Ex-229, (6S)-4-(8-(6-chloro-5-cyclopropyl-1H-indazol-4-yl)-2-(((2R,7aS)-2-meth-oxytetrahydro-1H-pyrrolizin-7a(5H)-yl)methoxy)pyrido [4′,3′:4,5]thieno[2,3-d]pyrimidin-4-yl)-6-methyl-1,4-oxaze-pan-6-ol], for which the IC50 amounted to 6.54 nM on KRAS-G12D (setting [1]); 19.1 nM at KRAS-G12V (setting [2]); 109 nM in the experiment on AsPC-1 cells (setting [3]); 22.5 nM at KRAS-WT (setting [4]); 51.9 nM in the experiment on MKN-1 cells (2 hours compound incubation); 38.2 nM with SW620 cells (setting [5]).

As to `CO[C@@H]1CN2CCC[C@@]2(COc2nc(N3CCOC[C@@](C)(O)C3)c3c(n2)sc2c(-c4c(C5CC5)c(Cl)cc5[nH]ncc45)nccc23)C1` [Ex-228, (6S)-4-(8-(6-chloro-5-cyclopropyl-1H-indazol-4-yl)-2-(((25,7aS)-2-meth-oxytetrahydro-1H-pyrrolizin-7a(5H)-yl)methoxy)pyrido [4′,3′:4,5]thieno[2,3-d]pyrimidin-4-yl)-6-methyl-1,4-oxaze-pan-6-ol], the IC50 was 16 nM at KRAS-G12D (setting [1]); 38.2 nM on KRAS-G12V (setting [2]); 379 nM with AsPC-1 cells (setting [3]); 53 nM on KRAS-WT (setting [4]); 180 nM in the experiment on MKN-1 cells (2 hours compound incubation); 133 nM in the experiment with SW620 cells (setting [5]).

As to `C[C@@H]1CCCc2cc3[nH]ncc3c(-c3nccc4c3sc3nc(OC[C@@]56CCCN5C[C@H](F)C6)nc(N5CCOC[C@@](C)(O)C5)c34)c21` [Ex-116], the IC50 on KRAS-G12D (setting [1]) was determined as 4.87 nM; at KRAS-G12V (setting [2]) it was 17.9 nM; with AsPC-1 cells (ASPC1, 2 h, KRAS-G12D, 2 hours) it was 56.6 nM; at KRAS-WT (setting [4]), 9.84 nM; with MKN-1 cells (setting [6]) it was 46.4 nM; with SW620 cells (SW-620, KRAS-G12V, 2 hours), 36.4 nM.
